This is an account of results in US9975888B2, “Aryl linked imidazole and triazole derivatives and methods of use thereof for improving the pharmacokinetics of a drug” (MERCK SHARP & DOHME CORP., priority 2013, dated 2018).

Common to all, as to type: biochemical
Test [1] concerns the target T1, CYP3A4 (Homo sapiens, UniProt P08684). The test is described as follows: IC50 vs CYP3A by inhibition of lopinavir metabolism in human liver microsomes. Details: 0.01 mg/mL protein human liver microsomes (BD Gentest); tissue BD Gentest; host or cells: human liver microsomes. To be noted: 1.5 μM lopinavir, 0.01 mg/mL human liver microsomes, 8 min at 37° C.; read-out: CYP IC50 (nM) 3A4 (LPV). The gist of the method: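 Human liver microsomes (0.01 mg/mL) with 1.5 μM lopinavir, 1 mM NADPH, 3.3 mM MgCl2 in 100 mM potassium phosphate pH 7.4, 8 min at 37 °C, six compound concentrations. Summed M2/M3/M4 hydroxy metabolites quantified by LC/MS/MS against tolbutamide; % inhibition normalised between no-inhibitor and 5 μM ketoconazole controls, IC50 by non-linear regression.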
Target sequence in this assay (P08684 2-503): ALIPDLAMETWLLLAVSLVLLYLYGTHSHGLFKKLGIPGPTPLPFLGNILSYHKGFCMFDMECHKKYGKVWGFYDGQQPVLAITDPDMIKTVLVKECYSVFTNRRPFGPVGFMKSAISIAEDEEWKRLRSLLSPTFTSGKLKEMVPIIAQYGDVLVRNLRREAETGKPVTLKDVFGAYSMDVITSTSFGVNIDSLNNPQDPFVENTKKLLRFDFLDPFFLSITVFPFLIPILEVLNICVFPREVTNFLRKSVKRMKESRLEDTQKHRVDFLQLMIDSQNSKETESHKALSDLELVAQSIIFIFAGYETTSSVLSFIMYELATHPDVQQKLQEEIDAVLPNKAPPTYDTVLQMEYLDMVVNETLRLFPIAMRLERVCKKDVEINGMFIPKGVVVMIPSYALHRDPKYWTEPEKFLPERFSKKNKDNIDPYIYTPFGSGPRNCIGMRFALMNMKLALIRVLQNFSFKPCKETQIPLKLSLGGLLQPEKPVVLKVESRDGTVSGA

The next test has as its target T2, CYP2D6 (Homo sapiens, UniProt P10635).
T2 construct: 0.1 mg/mL protein human liver microsomes (BD Gentest); tissue BD Gentest; host or cells: human liver microsomes
The experiment in a line: Cocktail assay for CYPs, dextromethorphan O-demethylation (CYP2D6), human liver microsomes. To be noted: 5 μM dextromethorphan, 0.1 mg/mL human liver microsomes, 10 min at 37° C.; read-out: CYP IC50 (nM) 2D6. Summed up:
(§1)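 Pooled human liver microsomes (0.1 mg/mL) with a probe cocktail of 10 μM phenacetin, 5 μM dextromethorphan and 2 μM midazolam plus NADPH, pH 7.4, 10 min at 37° C. Each metabolite was quantified by LC/MS/MS against a tolbutamide internal standard. IC50 came from % inhibition at 6 concentrations (e.g. 0.0032–10 μM) by non-linear regression.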

The next test has as its target T3, CYP2C9 (Homo sapiens, UniProt P11712).
T3 construct: 0.1 mg/mL protein human liver microsomes (BD Gentest); tissue BD Gentest; host or cells: human liver microsomes
The experiment in a line: Cocktail assay for CYPs, diclofenac 4′-hydroxylation (CYP2C9), human liver microsomes. To be noted: 5 μM diclofenac, 0.1 mg/mL human liver microsomes, 10 min at 37° C.; read-out: CYP IC50 (nM) 2C9. Summed up:
(§2)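 Pooled human liver microsomes (0.1 mg/mL) with probe cocktail incl. 5 μM diclofenac (CYP2C9) and 30 μM mephenytoin (CYP2C19), 1 mM NADPH, pH 7.4 phosphate buffer, 10 min at 37° C. Metabolites quantified by LC/MS/MS against internal standard; % inhibition versus no-inhibitor control, IC50 by non-linear regression.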

The next test has as its target T4, CYP1A2 (Homo sapiens, UniProt P05177).
T4 construct: 0.1 mg/mL protein human liver microsomes (BD Gentest); tissue BD Gentest; host or cells: human liver microsomes
T4 sequence (P05177 1-516): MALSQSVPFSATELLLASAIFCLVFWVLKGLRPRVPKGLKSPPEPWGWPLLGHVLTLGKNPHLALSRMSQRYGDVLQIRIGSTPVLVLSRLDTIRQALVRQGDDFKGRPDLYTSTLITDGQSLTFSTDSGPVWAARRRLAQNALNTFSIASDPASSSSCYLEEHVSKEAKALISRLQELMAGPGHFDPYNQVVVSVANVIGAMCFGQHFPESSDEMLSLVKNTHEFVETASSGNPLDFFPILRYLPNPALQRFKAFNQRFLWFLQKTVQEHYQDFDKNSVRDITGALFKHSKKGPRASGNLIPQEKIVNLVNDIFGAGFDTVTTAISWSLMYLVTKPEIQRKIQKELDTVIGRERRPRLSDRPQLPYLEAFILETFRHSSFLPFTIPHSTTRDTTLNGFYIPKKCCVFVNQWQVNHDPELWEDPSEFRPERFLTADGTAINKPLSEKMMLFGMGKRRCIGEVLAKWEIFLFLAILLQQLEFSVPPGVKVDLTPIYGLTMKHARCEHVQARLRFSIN
The experiment in a line: Cocktail assay for CYPs, phenacetin O-deethylation (CYP1A2), human liver microsomes. To be noted: 10 μM phenacetin, 0.1 mg/mL human liver microsomes, 10 min at 37° C.; read-out: CYP IC50 (nM) 1A2. The gist of the method:
as §1

Another test deals with T5, CYP2C19 (Homo sapiens, UniProt P33261).
T5 construct: 0.1 mg/mL protein human liver microsomes (BD Gentest); tissue BD Gentest; host or cells: human liver microsomes
The experiment in a line: Cocktail assay for CYPs, mephenytoin 4′-hydroxylation (CYP2C19), human liver microsomes. Particulars: 30 μM mephenytoin, 0.1 mg/mL human liver microsomes, 10 min at 37° C.; read-out: CYP IC50 (nM) 2C19. Summed up: as §2

In test [2] the target is T1, CYP3A4. The test is described as follows: Cocktail assay for CYPs, midazolam 1′-hydroxylation (CYP3A4), human liver microsomes. Also on record: 0.1 mg/mL protein human liver microsomes (BD Gentest); tissue BD Gentest; host or cells: human liver microsomes. Particulars: 2 μM midazolam, 0.1 mg/mL human liver microsomes, 10 min at 37° C.; read-out: CYP IC50 (nM) 3A4 (MDZ). Summed up: as §1
Target sequence in this assay (P08684 whole entry): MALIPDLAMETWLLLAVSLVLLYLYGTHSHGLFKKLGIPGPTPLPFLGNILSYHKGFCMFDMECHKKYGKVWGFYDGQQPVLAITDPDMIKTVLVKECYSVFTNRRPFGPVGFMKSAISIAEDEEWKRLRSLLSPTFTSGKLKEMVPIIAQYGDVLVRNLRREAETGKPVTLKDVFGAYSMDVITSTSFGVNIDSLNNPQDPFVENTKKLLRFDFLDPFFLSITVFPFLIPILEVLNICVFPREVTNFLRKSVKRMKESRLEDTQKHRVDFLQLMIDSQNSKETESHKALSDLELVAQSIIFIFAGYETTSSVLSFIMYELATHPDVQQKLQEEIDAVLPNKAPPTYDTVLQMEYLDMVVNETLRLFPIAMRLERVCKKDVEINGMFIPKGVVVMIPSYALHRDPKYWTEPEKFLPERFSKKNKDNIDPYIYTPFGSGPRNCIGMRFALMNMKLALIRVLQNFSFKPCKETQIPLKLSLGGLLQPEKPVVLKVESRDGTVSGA

Each structure is given as a SMILES string.

T5 sequence (P33261 whole entry): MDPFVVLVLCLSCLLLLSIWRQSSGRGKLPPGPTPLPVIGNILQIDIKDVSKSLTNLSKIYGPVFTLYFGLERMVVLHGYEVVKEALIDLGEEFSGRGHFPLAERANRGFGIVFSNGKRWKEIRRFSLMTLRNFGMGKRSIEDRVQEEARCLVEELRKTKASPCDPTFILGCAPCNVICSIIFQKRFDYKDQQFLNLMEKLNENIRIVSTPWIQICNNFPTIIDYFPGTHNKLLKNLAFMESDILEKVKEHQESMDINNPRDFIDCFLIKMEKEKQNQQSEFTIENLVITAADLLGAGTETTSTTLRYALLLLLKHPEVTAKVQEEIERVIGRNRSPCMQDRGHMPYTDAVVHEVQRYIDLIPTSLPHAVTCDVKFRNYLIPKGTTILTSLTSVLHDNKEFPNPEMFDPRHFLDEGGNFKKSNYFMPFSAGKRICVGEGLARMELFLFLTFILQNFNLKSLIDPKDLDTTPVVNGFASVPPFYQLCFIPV
T2 sequence (P10635 whole entry): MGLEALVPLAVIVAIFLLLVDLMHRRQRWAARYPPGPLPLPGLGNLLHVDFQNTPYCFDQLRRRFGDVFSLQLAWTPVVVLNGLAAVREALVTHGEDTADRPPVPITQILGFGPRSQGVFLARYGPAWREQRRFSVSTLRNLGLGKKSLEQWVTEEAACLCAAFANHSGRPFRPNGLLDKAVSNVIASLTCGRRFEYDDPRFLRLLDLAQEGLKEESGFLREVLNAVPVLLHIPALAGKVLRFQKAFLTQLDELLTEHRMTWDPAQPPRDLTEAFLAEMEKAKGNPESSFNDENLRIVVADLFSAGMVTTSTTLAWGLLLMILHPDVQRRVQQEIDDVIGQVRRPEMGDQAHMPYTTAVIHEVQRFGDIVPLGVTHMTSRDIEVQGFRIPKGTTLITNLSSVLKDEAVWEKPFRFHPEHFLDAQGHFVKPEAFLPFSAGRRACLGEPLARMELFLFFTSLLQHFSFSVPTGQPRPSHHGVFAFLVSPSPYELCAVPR
T3 sequence (P11712 whole entry): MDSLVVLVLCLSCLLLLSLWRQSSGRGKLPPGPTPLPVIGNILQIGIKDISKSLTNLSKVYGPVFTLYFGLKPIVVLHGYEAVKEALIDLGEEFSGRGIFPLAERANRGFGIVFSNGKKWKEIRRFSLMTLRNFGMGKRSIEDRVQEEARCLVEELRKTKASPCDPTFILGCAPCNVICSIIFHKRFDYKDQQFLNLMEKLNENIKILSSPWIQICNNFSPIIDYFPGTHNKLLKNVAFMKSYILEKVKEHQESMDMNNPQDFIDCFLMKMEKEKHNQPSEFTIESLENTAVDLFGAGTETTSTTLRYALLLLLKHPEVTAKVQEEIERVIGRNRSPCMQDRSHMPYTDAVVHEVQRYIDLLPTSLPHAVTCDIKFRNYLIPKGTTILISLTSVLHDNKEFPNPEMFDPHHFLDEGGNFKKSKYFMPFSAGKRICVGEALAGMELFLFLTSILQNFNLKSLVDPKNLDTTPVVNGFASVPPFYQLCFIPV

Consider `O=S(=O)(c1ccc(N2CCN(CCO)CC2)nc1)N1CCCC1c1ccccc1-c1cncn1CCc1ccc(F)cc1` (single isomer, unassigned) [Compound 35a, (R or S)-2-(4-(5-((2-(2-(1-(4-fluorophenethyl)-1H-imidazol-5-yl)phenyl)pyrrolidin-1-yl)sulfonyl)pyridin-2-yl)piperazin-1-yl) ethanol], for which the IC50 at CYP3A4 [1] is 4.2 nM; on CYP2D6, 4600 nM; at CYP2C9, 8600 nM; at CYP1A2, greater than 10000 nM; on CYP2C19 it was greater than 10000 nM; at CYP3A4 [2] it was 8.1 nM.

Consider `O=C(C1CC1)N1CCCC1c1ccccc1-c1cncn1CCc1ccc(F)cc1` (single isomer, unassigned) [Compound 44a, (R or S)-cyclopropyl(2-(2-(1-(4-fluorophenethyl)-1H-imidazol-5-yl)phenyl)pyrrolidin-1-yl)methanone], for which the IC50 on CYP3A4 [1] was 20.1 nM; on CYP2D6, greater than 10000 nM; on CYP2C9, greater than 10000 nM; on CYP1A2 it was greater than 10000 nM; at CYP2C19, 6520 nM; at CYP3A4 [2] it was 46.6 nM.

`O=S(=O)(c1cnc(N2CCN3C[C@H](O)C[C@H]3C2)s1)N1CCc2cccc(-c3cncn3CCc3ccc(F)cc3)c2C1` [Compound 65, (7R,8aS)-2-(5-((8-(1-(4-fluorophenethyl)-1H-imidazol-5-yl)-3,4-dihydroisoquinolin-2(1H)-yl)sulfonyl)thiazol-2-yl)octahydropyrrolo[1,2-a]pyrazin-7-ol]: the IC50 on CYP3A4 [1] is 8.9 nM; on CYP2D6, 4900 nM; on CYP2C9, 1260 nM; at CYP1A2 it was greater than 10000 nM; at CYP2C19, 9230 nM; on CYP3A4 [2], 18.5 nM.

With `CC(C)NC(=O)N1CCCC1c1ccccc1-c1cncn1CCc1ccc(F)cc1` (single isomer, unassigned) [Compound 46a, (R or S)-2-(2-(1-(4-fluorophenethyl)-1H-imidazol-5-yl)phenyl)-N-isopropyl-pyrrolidine-1-carboxamide], the IC50 on CYP3A4 [1] was 45.3 nM; at CYP2D6 it was greater than 10000 nM; on CYP2C9 it was greater than 10000 nM; on CYP1A2, greater than 10000 nM; at CYP2C19 it was greater than 10000 nM; on CYP3A4 [2], 58.5 nM.

As for `CN(C)c1ccc(S(=O)(=O)N2CCCC2c2ccccc2-c2cncn2CCc2ccc(F)cc2)cn1` (single isomer, unassigned) [Compound 28b, (R or S)-5-((2-(2-(1-(4-fluorophenethyl)-1H-imidazol-5-yl)phenyl)pyrrolidin-1-yl)sulfonyl)-N,N-dimethylpyridin-2-amine], the IC50 on CYP3A4 [1] is 10.1 nM; on CYP2D6, greater than 10000 nM; on CYP2C9, 1150 nM; at CYP1A2, greater than 10000 nM; at CYP2C19 it was 4980 nM; at CYP3A4 [2], 11.8 nM.

Take `C[C@H](c1ccc(F)cc1)n1cncc1-c1cccc2c1CCN(S(=O)(=O)c1cnc(N3CCN4C[C@H](O)C[C@H]4C3)s1)C2` [Compound 63, (7R,8aS)-2-(5-((5-(1-((R)-1-(4-fluorophenyl)ethyl)-1H-imidazol-5-yl)-3,4-dihydroisoquinolin-2(1H)-yl)sulfonyl)thiazol-2-yl)octahydropyrrolo[1,2-a]pyrazin-7-ol]: the IC50 on CYP3A4 [1] amounted to 5 nM; on CYP2D6, 3680 nM; at CYP2C9, 4950 nM; on CYP1A2, 2500 nM; at CYP2C19, 2610 nM; on CYP3A4 [2] it was 7.5 nM.

Consider `COc1ccc(OC)c(S(=O)(=O)N2CCCC2c2ccccc2-c2cncn2CCc2ccc(F)cc2)c1` (stereo not drawn) [Compound 27, 5-(2-(1-((2,5-dimethoxyphenyl)sulfonyl)pyrrolidin-2-yl)phenyl)-1-(4-fluorophenethyl)-1H-imidazole], for which the IC50 at CYP3A4 [1] turned out to be 41 nM; on CYP2D6, 3480 nM; on CYP2C9, 1910 nM; on CYP1A2, 2650 nM; at CYP2C19, 3800 nM; on CYP3A4 [2], 36.1 nM.

Regarding `O=C(c1ccc(N2CCOCC2)nc1)N1CCCC1c1cccc(-c2cncn2CCc2ccc(F)cc2)c1` (stereo not drawn) [Compound 52, (2-(3-(1-(4-fluorophenethyl)-1H-imidazol-5-yl)phenyl)pyrrolidin-1-yl) (6-morpholino-pyridin-3-yl) methanone], the IC50 on CYP3A4 [1] was 6 nM; on CYP2D6, 2460 nM; at CYP2C9, 1970 nM; at CYP1A2, 6500 nM; on CYP2C19, 249 nM; at CYP3A4 [2] it was 5.76 nM.

For the compound `O=S(=O)(NCCc1ccccc1-c1cncn1CCc1ccc(F)cc1)c1cccnc1` [Compound 14, N-(2-(1-(4-fluorophenethyl)-1H-imidazol-5-yl)phenethyl)pyridine-3-sulfonamide], the IC50 was 54 nM at CYP3A4 [1]; 1100 nM on CYP2D6; 7410 nM at CYP2C9; greater than 10000 nM at CYP1A2; greater than 10000 nM on CYP2C19; 137 nM at CYP3A4 [2].

`O=C(c1ccc(N2CCOCC2)nc1)N1CCCC1c1ccccc1-c1cncn1CCc1ccc(F)cc1` (single isomer, unassigned) [Compound 43a, (R or S)-(2-(2-(1-(4-fluorophenethyl)-1H-imidazol-5-yl)phenyl)pyrrolidin-1-yl) (6-morpholino-pyridin-3-yl) methanone]: the IC50 on CYP3A4 [1] is 35.2 nM; on CYP2D6, greater than 10000 nM; at CYP2C9 it was greater than 10000 nM; at CYP1A2 it was greater than 10000 nM; at CYP2C19, 3270 nM; on CYP3A4 [2], 36.3 nM.

Take `COc1ccc(OC)c(S(=O)(=O)N2CCCC2c2cccc(-c3cncn3CCc3ccc(F)cc3)c2)c1` (single isomer, unassigned) [Compound 53a, (R or S)-5-(3-(1-((2,5-dimethoxyphenyl)sulfonyl)pyrrolidin-2-yl)phenyl)-1-(4-fluorophenethyl)-1H-imidazole]: the half-inhibitory concentration (IC50) on CYP3A4 [1] came to 2 nM; at CYP2D6, 1370 nM; at CYP2C9 it was 165 nM; on CYP1A2, 1080 nM; at CYP2C19 it was 78.6 nM; on CYP3A4 [2], 8.65 nM.

Regarding `O=C(C1CCOCC1)N1CCCC1c1cccc(-c2cncn2CCc2ccc(F)cc2)c1` (single isomer, unassigned) [Compound 49b, (R or S)-(2-(3-(1-(4-fluorophenethyl)-1H-imidazol-5-yl)phenyl)pyrrolidin-1-yl)(tetrahydro-2H-pyran-4-yl)methanone], the IC50 was greater than 100 nM at CYP3A4 [1]; greater than 10000 nM on CYP2D6; greater than 10000 nM at CYP2C9; greater than 10000 nM at CYP1A2; 6910 nM on CYP2C19; 58.6 nM at CYP3A4 [2].

For the compound `CC(=O)Nc1ncc(S(=O)(=O)NCc2ccc(-c3cncn3CCc3ccc(F)cc3)cn2)s1` [Compound 11, N-(5-(N-((5-(1-(4-fluorophenethyl)-1H-imidazol-5-yl)pyridin-2-yl)methyl)sulfamoyl)thiazol-2-yl)acetamide], the IC50 is greater than 100 nM at CYP3A4 [1]; 8390 nM on CYP2D6; 7470 nM at CYP2C9; greater than 10000 nM at CYP1A2; 912 nM at CYP2C19; 197 nM at CYP3A4 [2].
